Data as given in patent US11560400B2, “Salts of diphosphate phosphoramidate of nucleosides as anticancer compounds” (NuCana plc, priority 2017, dated 2023).
“Also recorded” adds a separate entry of the source.

System: KG1a cells
Experiment: In vitro cytotoxicity, Annexin V/propidium iodide assay in KG1a cells
Type: cell-based
Conditions: for change of potency (mean LD50) under hypoxic versus normoxic conditions: 5% oxygen
Procedure: The acute myeloid leukaemia (AML) KG1a cell line was maintained in RPMI medium (Invitrogen, Paisley, UK) supplemented with 100 units/mL penicillin, 100 μg/mL streptomycin and 20% foetal calf serum. Cells were subsequently aliquoted (10^5 cells/100 μL) into 96-well plates and were incubated at 37° C. in a humidified normoxic (20% oxygen) or hypoxic (1% or 5% oxygen) atmosphere for 48 h in the presence of clofarabine, or clofarabine diphosphate phosphoramidates of the invention (1×10^−10M-1×10^−6M). In addition, control cultures were carried out to which no drug was added. Cells were subsequently harvested by centrifugation and were analysed by flow cytometry using the Annexin V assay.
Cultured cells were harvested by centrifugation and then resuspended in 195 μL of calcium-rich buffer. Subsequently, 5 μL of Annexin V (Caltag Medsystems, Botolph Claydon, UK) was added to the cell suspension and cells were incubated in the dark for 10 mins prior to washing. Cells were finally resuspended in 190 μL of calcium-rich buffer together with 10 μL of propidium iodide. Apoptosis was assessed by dual-colour immunofluorescent flow cytometry as described previously. Subsequently LD50 values (the dose required to kill 50% of the cells in a culture) were calculated for each nucleoside analogue and diphosphate phosphoramidate.
The data obtained in these experiments were evaluated using one-way ANOVA. All data was confirmed as Gaussian or a Gaussian approximation using the omnibus K2 test. LD50 values were calculated from the non-linear regression and line of best-fit analysis of the sigmoidal dose-response curves. All statistical analyses were performed using Graphpad Prism 6.0 software (Graphpad Software Inc., San Diego, Calif.).
The in vitro drug sensitivity of KG1a cells was assessed using the Annexin V/propidium iodide assay.

What does the source list for `Nc1nc(Cl)nc2c1ncn2[C@@H]1O[C@H](CO)[C@@H](O)[C@@H]1F` [Clofarabine, reference compound]?
change of potency (mean LD50) under hypoxic versus normoxic conditions (in words): significant loss in potency under hypoxic conditions; also recorded: significant reduction in potency; change of potency (mean LD50) under hypoxic versus normoxic conditions (in words, listed as clofarabine): significant increase in mean LD50 under hypoxic conditions; also recorded: significant reduction in potency; Hypoxia Mean LD50 (48 h, hypoxic (5% O2)): 53.1 nM; Mean LD50 (Normoxia Mean LD50) (48 h, normoxic (20% oxygen)): 16.9 nM; mean LD50 under hypoxic conditions (hypoxic (5% oxygen)): 53.1 nM; potency in KG1a cells (dose-response curves) (in words): highest potency; mean LD50 (normoxic): 16.9 nM; Ratio Normoxia/Hypoxia (ratio of mean LD50 values): 31.8
